Experimental findings from patent publication US20260217672A1, “BENZAMIDE COMPOUNDS FOR TREATMENT OF BACTERIAL INFECTIONS” (Hoffmann-La Roche Inc., priority 2022, published 2026) are described below.

For experiment [1], the system named is Escherichia coli ATCC 25922. Put plainly: Minimal Inhibitory Concentration (MIC) broth dilution assay. Format: cell-based. Conditions: ATCC25922, 20 h, read-out: MIC Escherichia coli ATCC 25922. The protocol:
(§1) The antibacterial activity of the compounds of the present invention was evaluated against the commonly used quality control strain Escherichia coli ATCC 25922 and the rifampin-resistant mutant strain Klebsiella pneumonia ATCC 43816. Both were originally derived from human clinical samples and are available from ATCC (American Type Culture Collection). The in vitro potency of compounds to inhibit Escherichia coli (ATCC 25922) and Klebsiella pneumonia (ATCC 43816) growth was assessed by the MIC (Minimal Inhibitory Concentration) broth dilution method. Specifically compound dilutions were prepared from 10 mM DMSO stock solutions as follows: i) serial 2-fold dilution in 20 μL DMSO were prepared in a master plate (Greiner, Cat No: 651201), ii) 180 μL sterile distilled water was added to each aliquot and iii) 10 μL diluted compounds were transferred into a new assay plate (Costar, 3599).
(§2) Vials of each test microorganisms were maintained frozen in the vapor phase of a liquid nitrogen freezer. Single-use frozen vials of the two strains Escherichia coli ATCC 25922 (KWIKSTIK, 0335K) and Klebsiella pneumonia ATCC 43816, with predetermined CFU/mL, were taken out from the freezer, thawed at room temperature, and diluted in Cation-Adjusted Mueller Hinton Broth (CAMHB) to achieve a final inoculum of 5×10^5 CFU/mL. 90 μL bacteria containing broth was dispensed to the assay plate containing the pre-dispensed compound dilutions and mixed by pipetting 5 times.
(§3) Then the assay plates were incubated for 20 hours at 35° C. in ambient air. Following incubation, the MIC ([…]), the lowest concentration of drug that inhibits visible growth of the microorganism was read with the help of a magnification mirror and recorded.
(In general: In broth dilution the organism is exposed to a series of concentrations in liquid medium.)

The subject of experiment [2] is Klebsiella pneumonia ATCC 43816. Described as above. Format: cell-based. As to conditions: Klebsiella pneumoniae, ATCC43816, 20 h, read-out: MIC Klebsiella pneumoniae ATCC43816. The protocol: as §1, §2, §3

Converted amounts (≈) assume the structure as drawn.

For orientation: MIC means the least concentration at which growth counts as inhibited. `Cn1cc2c(n1)CN(C(=O)Nc1ccc(S(=O)(=O)N3CCN(c4cc(C(F)(F)F)cc(Cl)n4)CC3)cc1)C2` [Example 032, N-[4-[4-[6-chloro-4-(trifluoromethyl)-2-pyridyl]piperazin-1-yl]sulfonylphenyl]-2-methyl-4,6-dihydropyrrolo[3,4-c]pyrazole-5-carboxamide]: the MIC in experiment [1] and in experiment [2] was 7.1 µg/mL (≈ 12.5 µM) in each case.
Turning to `Cn1ncc2c1CN(C(=O)Nc1ccc(S(=O)(=O)N3CCN(c4cc(C(F)(F)F)cc(Cl)n4)CC3)cc1)C2` [Example 033, N-[4-[4-[6-chloro-4-(trifluoromethyl)-2-pyridyl]piperazin-1-yl]sulfonylphenyl]-1-methyl-4,6-dihydropyrrolo[3,4-c]pyrazole-5-carboxamide], the MIC in experiment [1] and in experiment [2] was 3.6 µg/mL (≈ 6.32 µM) each time.
As for `Cn1ncc(C(=O)N2CCc3cc(S(=O)(=O)N4CCN(c5cc(C(F)(F)F)cc(Cl)n5)CC4)ccc32)c1C(=O)O` [Example 035, 4-[5-[4-[6-Chloro-4-(trifluoromethyl)-2-pyridyl]piperazin-1-yl]sulfonylindoline-1-carbonyl]-2-methyl-pyrazole-3-carboxylic acid], the MIC is 3.7 µg/mL (≈ 6.18 µM) in experiment [1] and 7.5 µg/mL (≈ 12.5 µM) in experiment [2].
On to `O=C(c1cnn(C2CNC2)c1)N1CCc2cc(S(=O)(=O)N3CCN(c4cc(C(F)(F)F)cc(Cl)n4)CC3)ccc21` [Example 036, [1-(Azetidin-3-yl)pyrazol-4-yl]-[5-[4-[6-chloro-4-(trifluoromethyl)-2-pyridyl]piperazin-1-yl]sulfonylindolin-1-yl]methanone], for which the MIC stood at 3.7 µg/mL (≈ 6.21 µM) in experiment [1] and 7.4 µg/mL (≈ 12.4 µM) in experiment [2].
Taken in the same sequence, the figures for `NCCCn1cc(C(=O)N2CCc3cc(S(=O)(=O)N4CCN(c5cc(C(F)(F)F)cc(Cl)n5)CC4)ccc32)cn1` [Example 037, [1-(3-Aminopropyl)pyrazol-4-yl]-[5-[4-[6-chloro-4-(trifluoromethyl)-2-pyridyl]piperazin-1-yl]sulfonylindolin-1-yl]methanone] were 3.7 µg/mL (≈ 6.19 µM) and 7.5 µg/mL (≈ 12.5 µM).
As to `O=C(c1cnn2c1CNCC2)N1CCc2cc(S(=O)(=O)N3CCN(c4cc(C(F)(F)F)cc(Cl)n4)CC3)ccc21` [Example 038, [5-[4-[6-Chloro-4-(trifluoromethyl)-2-pyridyl]piperazin-1-yl]sulfonylindolin-1-yl]-(4,5,6,7-tetrahydropyrazolo[1,5-a]pyrazin-3-yl)methanone], the MIC was found to be 3.7 µg/mL (≈ 6.21 µM) in experiment [1] and 7.4 µg/mL (≈ 12.4 µM) in experiment [2].
In the case of `O=C(CN1CCNCC1)Nc1ccc(S(=O)(=O)N2CCN(c3cc(C(F)(F)F)cc(Cl)n3)CC2)cc1` [Example 040, N-[4-[4-[6-chloro-4-(trifluoromethyl)-2-pyridyl]piperazin-1-yl]sulfonylphenyl]-2-piperazin-1-yl-acetamide], the MIC in experiment [1] is 2.1 µg/mL (≈ 3.84 µM); in experiment [2], 8.3 µg/mL (≈ 15.2 µM).
Taken in the same sequence, the figures for `O=C(O)c1ccccc1C(=O)N1CCc2cc(S(=O)(=O)N3CCN(c4cc(C(F)(F)F)cc(Cl)n4)CC3)ccc21` [Example 042, 2-[5-[4-[6-Chloro-4-(trifluoromethyl)-2-pyridyl]piperazin-1-yl]sulfonylindoline-1-carbonyl]benzoic acid] were 0.99 µg/mL (≈ 1.66 µM) and 2 µg/mL (≈ 3.36 µM).
Regarding `Cc1cc(C(F)(F)F)nc(N2CCN(S(=O)(=O)c3ccc(NC(=O)c4cnc5c(c4)CNC5)cc3)CC2)n1` [Example 044, N-[4-[4-[4-methyl-6-(trifluoromethyl)pyrimidin-2-yl]piperazin-1-yl]sulfonylphenyl]-6,7-dihydro-5H-pyrrolo[3,4-b]pyridine-3-carboxamide], the MIC in experiment [1] amounted to 0.91 µg/mL (≈ 1.66 µM); in experiment [2] it was 1.8 µg/mL (≈ 3.29 µM).
With `Cc1cc(C(F)(F)F)cc(N2CCN(S(=O)(=O)c3ccc(NC(=O)c4cnc5c(c4)CNC5)cc3)CC2)n1` [Example 045, N-[4-[4-[6-methyl-4-(trifluoromethyl)-2-pyridyl]piperazin-1-yl]sulfonylphenyl]-6,7-dihydro-5H-pyrrolo[3,4-b]pyridine-3-carboxamide], the MIC came out at 0.91 µg/mL (≈ 1.66 µM) in experiment [1] and 3.6 µg/mL (≈ 6.59 µM) in experiment [2].
In the case of `O=C(Nc1ccc(S(=O)(=O)N2CCN(c3cc(C(F)(F)F)cc(Cl)n3)CC2)cc1)c1ccc2c(c1)CNC2` [Example 046, N-[4-[4-[6-chloro-4-(trifluoromethyl)-2-pyridyl]piperazin-1-yl]sulfonylphenyl]isoindoline-5-carboxamide], the MIC in experiment [1] and in experiment [2] was 0.47 µg/mL (≈ 0.83 µM) each time.
Take `O=C(Nc1ccc(S(=O)(=O)N2CCN(c3cc(C(F)(F)F)cc(Cl)n3)CC2)cc1)c1cccc(N2CC3CC2CN3)c1` (stereo not shown) [Example 047, N-[4-[4-[6-chloro-4-(trifluoromethyl)-2-pyridyl]piperazin-1-yl]sulfonylphenyl]-3-(2,5-diazabicyclo[2.2.1]heptan-2-yl)benzamide]: the MIC turned out to be 1.1 µg/mL (≈ 1.77 µM) in experiment [1] and 2.3 µg/mL (≈ 3.7 µM) in experiment [2].
Taken in the same sequence, the figures for `NCCOc1cccc(C(=O)Nc2ccc(S(=O)(=O)N3CCN(c4cc(C(F)(F)F)cc(Cl)n4)CC3)cc2)c1` [Example 048, 3-(2-Aminoethoxy)-N-[4-[4-[6-chloro-4-(trifluoromethyl)-2-pyridyl]piperazin-1-yl]sulfonylphenyl]benzamide] were 0.48 µg/mL (≈ 0.822 µM) and 0.97 µg/mL (≈ 1.66 µM).
Taken in the same sequence, the figures for `O=C(Nc1ccc(S(=O)(=O)N2CCN(c3cc(C(F)(F)F)cc(Cl)n3)CC2)cc1)c1cccc(OCC2CNC2)c1` [Example 050, 3-(Azetidin-3-ylmethoxy)-N-[4-[4-[6-chloro-4-(trifluoromethyl)-2-pyridyl]piperazin-1-yl]sulfonylphenyl]benzamide] were 1 µg/mL (≈ 1.64 µM) and 1 µg/mL (≈ 1.64 µM).
As for `N[C@@H]1CCN(c2cccc(C(=O)Nc3ccc(S(=O)(=O)N4CCN(c5cc(C(F)(F)F)cc(Cl)n5)CC4)cc3)c2)C1` [Example 051, N-[4-[4-[6-chloro-4-(trifluoromethyl)-2-pyridyl]piperazin-1-yl]sulfonylphenyl]-3-[(3R)-3-aminopyrrolidin-1-yl]benzamide], the minimal inhibitory concentration (MIC) in experiment [1] amounted to 0.56 µg/mL (≈ 0.919 µM); in experiment [2], 1.1 µg/mL (≈ 1.81 µM).
As for `NCCc1cccc(C(=O)Nc2ccc(S(=O)(=O)N3CCN(c4cc(C(F)(F)F)cc(Cl)n4)CC3)cc2)c1` [Example 053, 3-(2-Aminoethyl)-N-[4-[4-[6-chloro-4-(trifluoromethyl)-2-pyridyl]piperazin-1-yl]sulfonylphenyl]benzamide], the MIC was found to be 0.44 µg/mL (≈ 0.775 µM) in experiment [1] and 0.89 µg/mL (≈ 1.57 µM) in experiment [2].
Consider `O=C(Nc1ccc(S(=O)(=O)N2CCN(c3cc(C(F)(F)F)cc(Cl)n3)CC2)cc1)c1cccc(N2CCNCC2)c1` [Example 054, N-[4-[4-[6-chloro-4-(trifluoromethyl)-2-pyridyl]piperazin-1-yl]sulfonylphenyl]-3-piperazin-1-yl-benzamide], for which the values for the MIC in experiment [1] and in experiment [2] were 0.48 µg/mL (≈ 0.788 µM) and 0.95 µg/mL (≈ 1.56 µM), respectively.
Taken in the same sequence, the figures for `NC1Cc2ccc(C(=O)Nc3ccc(S(=O)(=O)N4CCN(c5cc(C(F)(F)F)cc(Cl)n5)CC4)cc3)cc2C1` (stereo not shown) [Example 055, 2-Amino-N-[4-[4-[6-chloro-4-(trifluoromethyl)-2-pyridyl]piperazin-1-yl]sulfonylphenyl]indane-5-carboxamide] were 0.45 µg/mL (≈ 0.776 µM) and 0.91 µg/mL (≈ 1.57 µM).
In the case of `NCc1ccc(O)c(C(=O)Nc2ccc(S(=O)(=O)N3CCN(c4cc(C(F)(F)F)cc(Cl)n4)CC3)cc2)c1` [Example 056, 5-(Aminomethyl)-N-[4-[4-[6-chloro-4-(trifluoromethyl)-2-pyridyl]piperazin-1-yl]sulfonylphenyl]-2-hydroxy-benzamide], the MIC in experiment [1] and in experiment [2] was 3.8 µg/mL (≈ 6.67 µM) throughout.
As to `NCCC(N)C(=O)Nc1cccc(C(=O)Nc2ccc(S(=O)(=O)N3CCN(c4cc(C(F)(F)F)cc(Cl)n4)CC3)cc2)c1` (stereo not shown) [Example 057, N-[4-[4-[6-chloro-4-(trifluoromethyl)-2-pyridyl]piperazin-1-yl]sulfonylphenyl]-3-(2,4-diaminobutanoylamino)benzamide], the MIC in experiment [1] turned out to be 1 µg/mL (≈ 1.56 µM); in experiment [2], 2 µg/mL (≈ 3.12 µM).
For the compound `NCCCNCc1ccnc(C(=O)Nc2ccc(S(=O)(=O)N3CCN(c4cc(C(F)(F)F)cc(Cl)n4)CC3)cc2)c1` [Example 058, 4-[(3-Aminopropylamino)methyl]-N-[4-[4-[6-chloro-4-(trifluoromethyl)-2-pyridyl]piperazin-1-yl]sulfonylphenyl]pyridine-2-carboxamide], the MIC in experiment [1] and in experiment [2] was 3.8 µg/mL (≈ 6.21 µM) each time.
With `NCCCNCc1cccc(C(=O)Nc2ccc(S(=O)(=O)N3CCN(c4cc(C(F)(F)F)cc(Cl)n4)CC3)cc2)n1` [Example 059, 6-[(3-Aminopropylamino)methyl]-N-[4-[4-[6-chloro-4-(trifluoromethyl)-2-pyridyl]piperazin-1-yl]sulfonylphenyl]pyridine-2-carboxamide], the figures for the MIC in experiment [1] and in experiment [2] were 1.9 µg/mL (≈ 3.1 µM) and 3.8 µg/mL (≈ 6.21 µM), respectively.
As to `NCCCNCc1cncc(C(=O)Nc2ccc(S(=O)(=O)N3CCN(c4cc(C(F)(F)F)cc(Cl)n4)CC3)cc2)c1` [Example 060, 5-[(3-Aminopropylamino)methyl]-N-[4-[4-[6-chloro-4-(trifluoromethyl)-2-pyridyl]piperazin-1-yl]sulfonylphenyl]pyridine-3-carboxamide], the MIC is 0.48 µg/mL (≈ 0.784 µM) in experiment [1] and 1.9 µg/mL (≈ 3.1 µM) in experiment [2].
